Test results taken from ChEMBL document CHEMBL1275551, “Identification of the genetic basis for clinical menadione-auxotrophic small-colony variant isolates of Staphylococcus aureus” (Antimicrob Agents Chemother, 2008).

How the values were obtained:
Format in all cases: functional, organism-based
Staphylococcus aureus [1] = test: Antibacterial activity against small-colony variant Staphylococcus aureus isolate OM299/1 harboring -1 frame shift mutation in 687 nucleotide of menB gene by Etest method
Staphylococcus aureus [2] = test: Antibacterial activity against Staphylococcus aureus isolate OM299/1 by Etest method
Staphylococcus aureus [3] = test: Antibacterial activity against small-colony variant Staphylococcus aureus isolate A22616/5 harboring 55-63 nucleotide deletion in menB gene by Etest method
Staphylococcus aureus [4] = test: Antibacterial activity against Staphylococcus aureus isolate A22616/5 by Etest method
Staphylococcus aureus [5] = test: Antibacterial activity against Staphylococcus aureus isolate OM1a by Etest method
Staphylococcus aureus [6] = test: Antibacterial activity against small-colony variant Staphylococcus aureus isolate OM1b harboring menB G698T Gly233Val mutant gene by Etest method
Staphylococcus aureus [7] = test: Antibacterial activity against phenotypic revertant Staphylococcus aureus OM1b:F2 harboring G698C Val233Ala compensatory mutation in menB gene by Etest method
Staphylococcus aureus [8] = test: Antibacterial activity against wild type Staphylococcus aureus OM1b:F5 phenotypic revertant by Etest method
Staphylococcus aureus [9] = test: Antibacterial activity against phenotypic revertant Staphylococcus aureus OM1b:F8 harboring 694-702 nucleotide deletion in menB gene by Etest method
Staphylococcus aureus [10] = test: Antibacterial activity against phenotypic revertant Staphylococcus aureus OM1b:F9 harboring G698T/Gly233Val and compensatory A776T/Lys259Ile mutant menB gene by Etest method

Q: What does the source list for GENTAMICIN?
A: MIC (Staphylococcus aureus [1]): 16 µg/mL; MIC (Staphylococcus aureus [2]): 0.32 µg/mL; MIC (Staphylococcus aureus [3]): 12 µg/mL; MIC (Staphylococcus aureus [4]): 0.19 µg/mL; MIC (Staphylococcus aureus [5]): 0.125 µg/mL; MIC (Staphylococcus aureus [6]): 8 µg/mL; MIC (Staphylococcus aureus [7]): 0.125 µg/mL; MIC (Staphylococcus aureus [8]): 0.125 µg/mL; MIC (Staphylococcus aureus [9]): 0.125 µg/mL; MIC (Staphylococcus aureus [10]): 0.125 µg/mL
